Assay results: patent publication US20220380477A1 (priority 2019, published 2022)

Test system: SNU-C5/WT
Conditions: mouse, in vivo

Question: `O=c1[nH]cc(F)c(=O)[nH]1` [5FU, 5-fluorouracil] was tested. Which “cell proliferation of tumor cells (Ki67 fluorescence staining)” value did it give?
Answer: not able to decrease the proliferative ability of tumor cells

Question: And the “tumor formation (tumor volume)” value?
Answer: does not effectively inhibit tumor formation
